Some results are limits rather than exact numbers.

The subject of this experiment is Huh7 psiCHECK-miR122 Renilla luciferase reporter, 48 h. The experiment can be described thus: miR-122 inhibitors in Huh7 reporter cells, dose response, cell-based, Huh7 psiCHECK-miR122, Renilla luciferase, cherry-pick (AID 652053).
Take `Cc1ccc(C)c(S(=O)(=O)Nc2ccc3sc(C)nc3c2)c1`: the AC40 was 1.5 µM.

Take `Fc1cccc(Cn2cc(C(=S)N3CCOCC3)c3ccccc32)c1`: the AC40 was 21 µM. `N#Cc1c(NC(=O)c2ccccc2)sc2c1CCC2`: the AC40 is 29 µM.

On to `C[C@H]1CN([C@@H](C)CO)C(=O)c2cccc(NC(=O)Nc3ccccc3)c2O[C@@H]1CN(C)Cc1ccc(C(=O)Nc2ccccc2N)cc1`, for which the AC40 is 11.3 µM. For the molecule `O=C(C[C@@H]1C[C@H]2c3cc(NS(=O)(=O)c4ccc(F)cc4)ccc3O[C@H]2[C@H](CO)O1)NCc1ccc(-c2ccccc2)cc1`, the AC40 was 5.24 µM.

As to `CCCC#Cc1cnc2c(c1)C(=O)N([C@H](C)CO)C[C@H](C)[C@H](CN(C)Cc1ccccc1F)O2`, the AC40 is 13.1 µM. For `COc1ccc(Br)cc1CNC(=O)Nc1cccs1`, the AC40 is 15.5 µM.

Take `Cc1ccc(NS(=O)(=O)c2csc(C(N)=O)c2)cc1C`: the AC40 was 3.14 µM. The figure for `O=S(=O)(NCCC1=CCCCC1)c1ccccc1Cl` is 3.9 µM; for `CCc1nnc(NC(=O)c2ccc(NS(=O)(=O)c3ccccc3)cc2)s1` it is 2.68 µM. For `CCOc1ccccc1N1CCN(C(=O)c2cccc(-c3ccc(O)cc3)c2)CC1`, the AC40 is 0.659 µM. Consider `COc1ccc(OC)c(S(=O)(=O)N2CCC3(CC2)OCCN3S(=O)(=O)c2cccs2)c1`, for which the AC40 is 15.7 µM. Consider `COc1ccc(NC(=O)CCNS(=O)(=O)c2cc(Br)ccc2Br)cc1S(N)(=O)=O`, for which the AC40 was 2.1 µM. Regarding `Cc1ccc(S(=O)(=O)Nc2ccc3c(c2)CC(=O)N([C@@H](C)CO)C[C@@H](C)[C@H](CN(C)Cc2ccc(C(=O)Nc4ccccc4N)cc2)O3)cc1`, the AC40 was 32.4 µM. For `Cc1cc(F)ccc1C(O)c1ncc(-c2ccccc2F)[nH]1` (stereo not given), the AC40 was 5.29 µM. Consider `COc1ccc(C)cc1S(=O)(=O)NC1CCCCC1C` (stereo not given), for which the AC40 was 3.25 µM. With `COc1ccc(NC(=O)Cc2cccc(F)c2)cc1S(=O)(=O)Nc1ccccc1Cl`, the AC40 is 4.83 µM. Regarding `O=C1c2ccccc2C2=Nc3ccccc3SC(c3cccc(F)c3)C12` (stereo not given), the AC40 is 7.63 µM. As for `COc1ccc(S(=O)(=O)NCc2ccccc2)cc1Br`, the AC40 was 5.07 µM. In the case of `CCn1nccc1C(=O)Nc1ccc(S(=O)(=O)NC23CC4CC(CC(C4)C2)C3)cc1`, the AC40 is 2.24 µM. Consider `COc1ccc(N(C(=O)c2ccncc2)S(=O)(=O)c2ccc3c4c(cccc24)C(=O)N3C)cc1`, for which the AC40 is 7.01 µM. For `Cc1ccc(C2c3c(-c4ccccc4O)n[nH]c3C(=O)N2Cc2ccncc2)cc1` (stereo not given), the AC40 was 8.08 µM.

`C[C@@H]1CN([C@H](C)CO)C(=O)c2cccc(NC(=O)c3ccc(-c4nccs4)cc3)c2O[C@@H]1CN(C)Cc1ccc(C(=O)Nc2ccccc2N)cc1`: the AC40 was 6.24 µM. Regarding `O=C(Nc1ccccc1F)N1C[C@H]2[C@@H](c3ccccc31)[C@@H](CO)N2C(=O)c1ccc(F)cc1`, the AC40 was 1.25 µM. Consider `Cc1ccc(C(C)C)cc1S(=O)(=O)Nc1cccnc1`, for which the AC40 is 2.62 µM. On to `C[C@@H]1CN([C@H](C)CO)S(=O)(=O)c2ccc(-c3ccc(F)cc3)cc2O[C@@H]1CN(C)Cc1ccccc1C(=O)O`, for which the AC40 is 5.45 µM. With `Cc1ccccc1NC(=O)c1ccc(NS(=O)(=O)c2cc(C(C)(C)C)cc(C)c2C)cc1` the figure was < 0.26 µM; with `CCc1ccc(-c2cc(C)no2)cc1S(=O)(=O)Nc1ccc(C)cn1`, 2.33 µM. For `CCCn1c(N)c(C(=O)CSc2nnc(Cc3cccs3)n2C2CC2)c(=O)n(C)c1=O`, the AC40 is 7.17 µM.

With `COc1ccc(OC)c(S(=O)(=O)Nc2ccc3oc4c(c3c2)C(=O)CCC4)c1`, the AC40 was 17.7 µM. In the case of `Oc1ccc(/C=N/NP(=S)(c2ccccc2)c2ccccc2)cc1`, the AC40 is 7.07 µM. The figure for `Cc1ccc(C(=O)NCCSc2ccccc2)cc1S(=O)(=O)Nc1ccccc1` is 4.09 µM; for `CCN(Cc1ccccc1)C(=O)c1[nH]c2ccc(OC)cc2c1C` it is 12 µM. In the case of `O=C(Cc1ccccc1)N1C[C@H]2[C@@H](c3ccccc31)[C@@H](CO)N2C(=O)c1ccc(F)cc1`, the AC40 was 5.37 µM.

For `COc1ccccc1NS(=O)(=O)c1cc(NC(=O)c2cccnc2)ccc1N1CCCCC1`, the AC40 is < 0.26 µM. Turning to `OC(c1cc(Cl)cc(Cl)c1)c1ncc(-c2ccccc2F)[nH]1` (stereo not given), the AC40 was 3.84 µM. As for `CCN(CC)c1ccc(NC(=O)c2cnccn2)cc1S(=O)(=O)Nc1ccc(OC)cc1`, the AC40 was 0.976 µM.

With `S=C(NCc1cccs1)Nc1cccc(Cl)c1`, the AC40 was 3.93 µM.

`COC(=O)c1ccc(Nc2nnc(-c3ccc(C)c(S(=O)(=O)NCC4CCCO4)c3)c3ccccc23)cc1` (stereo not given): the AC40 is 0.761 µM.

Consider `Cc1cccc(NS(=O)(=O)c2ccc(C)c(C(=O)OCC(=O)Nc3cc(C)on3)c2)c1`, for which the AC40 is 4.46 µM. As to `Cc1ccc(C)c(NS(=O)(=O)c2cc(C(=O)NCc3ccco3)ccc2C)c1`, the AC40 is 7.68 µM. As to `C=CCNC(=O)c1ccccc1NC(=O)c1ccc(Cl)c(S(=O)(=O)Nc2cc(C)ccc2C)c1`, the AC40 was 1.38 µM. `CCOc1cc(N2CCOCC2)c(OCC)cc1NS(=O)(=O)c1ccc(Cl)s1`: the AC40 was 32.9 µM.

Turning to `COc1ccc(-c2cc(C)no2)cc1S(=O)(=O)NCC(C)c1ccccc1` (stereo not given), the AC40 was 2.74 µM.

As to `COc1ccc(F)cc1S(=O)(=O)Nc1ccc2c(c1)OCO2`, the AC40 was 5.47 µM. As for `Nc1c(S(=O)(=O)c2cccs2)c2nc3ccccc3nc2n1Cc1ccccc1`, the AC40 was 1.86 µM. Take `C[C@@H]1CN([C@H](C)CO)C(=O)c2cc(N(C)C)ccc2O[C@H]1CN(C)Cc1ccc(C(=O)Nc2ccccc2N)cc1`: the AC40 was 1.96 µM.

For the molecule `COc1ccc(S(=O)(=O)N(C)C[C@H]2Oc3ccc(NC(=O)Nc4ccc(F)cc4)cc3C(=O)N([C@H](C)CO)C[C@H]2C)cc1`, the AC40 is 0.631 µM.

In the case of `CC(=O)Nc1ccc(S(=O)(=O)Nc2ccc3c(c2)n(C)c(=O)n3C)c(C)c1`, the AC40 was 3.94 µM.

Consider `CCOC(=O)CNS(=O)(=O)c1cc(-c2nnc(Nc3ccc4c(c3)OCO4)c3ccccc23)ccc1C`, for which the AC40 was 2.63 µM. Consider `CCCCNS(=O)(=O)c1ccc2nc(-c3cccnc3)cc(C(=O)NC3CCCC3)c2c1`, for which the AC40 was 5.37 µM.

As to `Cc1cc2c(cc1S(=O)(=O)NCCc1ccccc1)NC(=O)CO2`, the AC40 was 4.41 µM.

Regarding `CC(=O)c1ccc(NS(=O)(=O)c2c(C)cc(C)cc2C)cc1`, the AC40 was 1.82 µM.

For the molecule `C[C@@H]1CN([C@H](C)CO)C(=O)Cc2cc(N(C)C)ccc2O[C@@H]1CN(C)Cc1ccc(C(=O)Nc2ccccc2N)cc1`, the AC40 is 11.1 µM. In the case of `CCNS(=O)(=O)c1cc(Br)ccc1OC`, the AC40 is 3.4 µM.

Regarding `Cc1cc(C)c(S(=O)(=O)Nc2ccc3c4c(cccc24)CC3)c(C)c1`, the AC40 is 7.76 µM. Take `COc1ccc(S(=O)(=O)Nc2ccc(CC#N)cc2)cc1`: the AC40 is 11.9 µM. Turning to `Cc1ccc(NS(=O)(=O)c2ccc3c(c2)NC(=O)CO3)cc1C`, the AC40 is 6.29 µM. Turning to `COc1ccc(Cl)cc1N(CC(=O)N1CCCC1)S(=O)(=O)c1ccc(C)cc1`, the AC40 is 2.49 µM.

Turning to `CCCCOc1ccc(S(=O)(=O)Nc2ccc(NC(C)=O)cc2)cc1`, the AC40 is 10.3 µM. Take `CCc1ccc(S(=O)(=O)Nc2ccc(Cl)cn2)cc1`: the AC40 is 8.84 µM. For `Cc1ccc(C)c(S(=O)(=O)NC(C)CCc2ccccc2)c1` (stereo not given), the AC40 is 3.81 µM. With `CCOc1ccc(S(=O)(=O)/N=C(/Nc2ccc(C)c(S(=O)(=O)N3CCOCC3)c2)c2ccccc2)cc1`, the AC40 was 2.23 µM. For `COc1ccc(OC)c(S(=O)(=O)Nc2ccccc2C(F)(F)F)c1`, the AC40 is 9.97 µM. Consider `CCCCCCNS(=O)(=O)c1ccc(Cl)s1`, for which the AC40 was 13.9 µM. Turning to `Cc1ccccc1CC1(C)C(=O)Nc2ccc(S(=O)(=O)NC3CCCCC3)cc21` (stereo not given), the AC40 was 2.69 µM. In the case of `Cc1ccc(S(=O)(=O)n2nc(C)c(Br)c2C)c(C)c1C`, the AC40 is 12 µM. Take `COc1cccc(CN(C(=O)Cc2c[nH]c3ccccc23)C(C(=O)NC2CCCCC2)c2cccs2)c1` (stereo not given): the AC40 was 6.05 µM.

On to `CC1CC(C)CN(S(=O)(=O)c2ccc(NC(=O)c3ccc(=O)[nH]c3)cc2)C1` (stereo not given), for which the AC40 was 12 µM. Take `CCN(CC)S(=O)(=O)c1cc(C(=O)N(C)CC(=O)Nc2ccc(Cl)cc2)ccc1Cl`: the AC40 was 13.9 µM. As for `CCOc1cc(S(=O)(=O)NCCc2ccccc2C)c(OCC)cc1-n1cnnn1`, the AC40 was 2.52 µM. For `Cc1ccc(S(=O)(=O)Nc2ccc3c(c2)C(=O)N([C@@H](C)CO)C[C@H](C)[C@H](CN(C)C(=O)Nc2ccc(F)cc2)OCCCC[C@@H](C)O3)cc1`, the AC40 is 1.86 µM. With `COc1ccc(NS(=O)(=O)c2ccc(NC(=S)NC(=O)CC(C)C)cc2)cc1` the figure was 0.502 µM. `Cc1nc2ccc(NS(=O)(=O)c3c(C)c(C)cc(C)c3C)cc2s1`: the AC40 is 0.68 µM.

Regarding `COc1ccc(CN(C(=O)c2ccc(-c3ccccc3)[nH]2)C(C(=O)NCC2CCCO2)c2ccc(C)o2)cc1` (stereo not given), the AC40 was 5.58 µM. The figure for `COCC(=O)Nc1ccc(S(=O)(=O)NCCc2ccccc2)cc1` is 12.9 µM. Consider `COc1cc(S(=O)(=O)NC2CCCC2)c(OC)cc1C`, for which the AC40 is 3.17 µM. For the molecule `O=S(=O)(NCCOCC(F)(F)C(F)F)c1ccc2oc3ccccc3c2c1`, the AC40 was 15.3 µM. In the case of `COc1ccc(S(=O)(=O)Nc2cc(Cl)ccc2OC)cc1`, the AC40 was 2.68 µM. For the molecule `O=C(Cc1cccc2ccccc12)Nc1ccc(OC(F)F)c(Cl)c1`, the AC40 was 4.28 µM. With `CCOc1ccc(C)cc1S(=O)(=O)NC1CCCCC1`, the AC40 was 0.575 µM. For `COc1cc(S(=O)(=O)Nc2ccccc2N2CCCCC2)ccc1NC(C)=O`, the AC40 is 6.94 µM. Consider `CC(C)CNS(=O)(=O)c1ccc(OCC(=O)Nc2ccc3c(c2)OCO3)c(Cl)c1`, for which the AC40 was 8.36 µM. For the molecule `CC(C)C(=O)Nc1ccc2c(c1)C(=O)N(C)[C@H]1CC[C@H](CC(=O)NCc3cccc(F)c3)O[C@H]1CO2`, the AC40 is 17.7 µM. With `CCOC(=O)c1cc(S(=O)(=O)NC2CCCCC2)cn1C` the figure was 5.77 µM; with `O=C(CCc1ccc(S(=O)(=O)NC2CCCCC2)cc1)NCc1ccccc1`, 4.38 µM; with `COc1ccccc1NS(=O)(=O)c1cc(NC(=O)c2cccc(S(=O)(=O)N(C)C)c2)ccc1N1CCOCC1`, 0.776 µM. As for `Cc1ccc(S(=O)(=O)Nc2ccccc2-c2ccccc2)cc1`, the AC40 was 12.4 µM. Regarding `Cc1cc(C(O)c2ncc(-c3ccccc3)[nH]2)ccc1F` (stereo not given), the AC40 is 19.2 µM. On to `CCOC(=O)c1ccc(S(=O)(=O)NC2CCCCCCC2)n1C`, for which the AC40 was 3.76 µM.
